ChEMBL document CHEMBL1201862, “PubChem BioAssay data set” (2004)
The source made the active and inactive calls. For most assays here, no stated cut-off is given here; in the data, actives have a measured EC50 and inactives only a lower limit.

How the values were obtained:
[1] = NIH3T3 cell viability loss – ATP luminescence, mouse fibroblasts, counter-screen, dose response (AID 2010); type: functional, cell-based; details: NIH3T3;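 further: cells exposed to compound for about 90 hours before reading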
[2] = Trypanosoma cruzi growth suppression in host cells – NIH3T3 host cells, beta-gal luminescence, confirmation (AID 2044); type: functional, cell-based;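 further: intracellular parasites grown in NIH/3T3 mouse fibroblasts as host cells; luminescent beta-galactosidase reporter signal from transgenic T. cruzi replicating inside host cells; inhibitors lower the luminescence signal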
Cytochrome P450 3A4 = Cytochrome P450 3A4 (Homo sapiens, UniProt P08684);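 further: CYP3A4 tested as one member of a cytochrome P450 panel screen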
cells = type: functional
[3] = viability of uninfected HEp-2 cells – cell-based, HTS, cytotoxicity control for RSV inhibitor project, dose response (AID 2410); type: functional; details: human respiratory syncytial virus
Streptokinase A = molecular target: T1, Streptokinase A (Streptococcus pyogenes serotype M1, UniProt P10520); assay: viability-normalized secreted streptokinase activity reduction – plasminogen activation absorbance, OD405, dose response (AID 1914); type: functional, Streptococcus pyogenes M1 GAS;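 further: secreted streptokinase activity via plasminogen activation per viability signal from cell pellet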
T1 sequence (P10520 whole entry): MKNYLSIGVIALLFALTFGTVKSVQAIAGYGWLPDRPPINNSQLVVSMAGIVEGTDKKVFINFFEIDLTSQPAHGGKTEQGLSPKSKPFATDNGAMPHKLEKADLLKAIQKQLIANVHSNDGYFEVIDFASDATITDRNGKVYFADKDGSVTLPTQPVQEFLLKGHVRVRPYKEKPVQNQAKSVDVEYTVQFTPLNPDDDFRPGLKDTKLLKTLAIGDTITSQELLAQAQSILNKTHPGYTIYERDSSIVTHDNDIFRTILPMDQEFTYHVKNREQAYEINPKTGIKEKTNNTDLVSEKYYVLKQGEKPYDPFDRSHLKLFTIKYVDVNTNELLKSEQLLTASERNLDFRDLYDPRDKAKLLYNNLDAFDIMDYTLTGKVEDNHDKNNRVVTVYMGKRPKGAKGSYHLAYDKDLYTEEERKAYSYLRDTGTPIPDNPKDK

Streptococcus = assay: GAS UMAA2166 growth inhibition – luminescence, BacTiterGlo, counter-screen for streptokinase expression inhibitor project, dose response (AID 1915); type: functional, organism-based; details: Streptococcus;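 further: potency for reduction of bacterial viability or growth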
[4] = tested on: Streptococcus sp. 'group A'; assay: Streptococcus pyogenes SK(-)GAS viability under kanamycin – luminescence, BacTiterGlo, confirmation, counter-screen for streptokinase expression inhibitor project, dose response (AID 1900); type: functional, organism-based; details: Streptococcus sp. 'group A'

Cytochrome P450 3A4, sequence (P08684 whole entry): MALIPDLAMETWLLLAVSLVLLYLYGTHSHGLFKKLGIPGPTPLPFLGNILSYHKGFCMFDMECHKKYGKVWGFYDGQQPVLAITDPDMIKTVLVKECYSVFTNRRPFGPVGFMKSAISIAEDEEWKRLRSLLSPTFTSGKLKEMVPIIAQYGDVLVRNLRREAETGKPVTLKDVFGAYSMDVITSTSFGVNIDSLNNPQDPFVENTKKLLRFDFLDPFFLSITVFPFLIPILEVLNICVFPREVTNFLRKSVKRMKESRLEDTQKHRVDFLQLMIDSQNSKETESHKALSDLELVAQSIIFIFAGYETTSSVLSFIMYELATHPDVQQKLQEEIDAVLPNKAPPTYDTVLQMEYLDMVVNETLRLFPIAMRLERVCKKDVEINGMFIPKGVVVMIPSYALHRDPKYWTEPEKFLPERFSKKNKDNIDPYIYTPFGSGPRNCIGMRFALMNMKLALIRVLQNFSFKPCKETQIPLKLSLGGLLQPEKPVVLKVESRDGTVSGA

## O=C(NCc1ccco1)C(c1ccccc1F)N(Cc1cccnc1)C(=O)Cn1nnc2ccccc21 (stereo not given)
[1]
  EC50: > 60 µM (not active)
[2]
  EC50: 1.68 µM (active)

## COC(=O)c1nn(-c2ccc(OC)cc2)c(=O)cc1Oc1cccc(Cl)c1
Cytochrome P450 3A4
  AC50: 39.8 µM (inconclusive)

## COc1cccc(C(=O)OCC(=O)c2ccc(Br)s2)c1OC
cells
  IC50: 29.7 µM (active)

## CCN(c1ccccc1)S(=O)(=O)c1ccc(OC)c(NC(=O)CNCCc2ccccc2)c1
[3]
  CC50: 14.4 µM (active)
[1]
  EC50: > 60 µM (not active)
[2]
  EC50: 1.72 µM (active)

## CC(C)(C)n1nnnc1C(c1cccnc1)N1CCN(c2ccccc2)CC1 (stereo not given)
[1]
  EC50: > 60 µM (not active)
[2]
  EC50: 0.666 µM (active)

## Cc1cccc(C(=O)NNC(=O)c2c(O)c3ccccc3n(C)c2=O)c1
Streptokinase A
  EC50: > 150 µM (not active)
Streptococcus
  EC50: 9.81 µM (active)
[4]
  EC50: 4.62 µM (active)

## CN1CCN(C(=O)CCCN2C(=O)/C(=C/c3ccc(Cl)cc3)SC2=S)CC1
[3]
  CC50: 13.5 µM (active)

## CCOC(=O)c1c(NC(=O)CSc2nnnn2-c2ccccc2OCC)sc2c1CC(C)(C)NC2(C)C
[1]
  EC50: > 30 µM (not active)
[2]
  EC50: 1.31 µM (active)

## CC1CCCC(C)N1c1nnc(NC(=O)c2cc(-c3ccc(Br)cc3)on2)s1 (stereo not given)
Streptokinase A
  EC50: > 150 µM (not active)
Streptococcus
  EC50: 25.2 µM (active)
[4]
  EC50: 2.33 µM (active)

## Cc1ccc2sc(NNC(=O)c3cc(-c4cccs4)nc4ccccc34)nc2c1C
Streptococcus
  EC50: 1.48 µM (active)
[4]
  EC50: 0.758 µM (active)

## COc1ccc(C(=O)C2CCCN(Cc3ccc4nonc4c3)C2)c(OC)c1 (stereo not given)
[1]
  EC50: > 60 µM (not active)
[2]
  EC50: 0.97 µM (active)

## COc1ccccc1CN1CCCC(CNC(=O)c2cccc3ccccc23)C1 (stereo not given)
[1]
  EC50: > 60 µM (not active)
[2]
  EC50: 0.679 µM (active)

## Cc1ccc(N2C(=O)CC(Sc3nc4ccccc4o3)C2=O)cc1Cl (stereo not given)
[1]
  EC50: 8.27 µM (active)
[2]
  EC50: 2.16 µM (active)

## Cc1nc(NC(=O)c2ccc(Cl)cc2)sc1-c1csc(Nc2cccc(F)c2)n1
Streptokinase A
  EC50: > 150 µM (not active)
Streptococcus
  EC50: 21.4 µM (active)
[4]
  EC50: 1.67 µM (active)

## COc1ccc(/C=C/C(=O)Nc2cccc(S(=O)(=O)NC3=NCCCCC3)c2)cc1
[3]
  CC50: 27.9 µM (active)

## Fc1ccc(CNc2nc(-c3cccnc3)nc3ccccc23)cc1
[1]
  EC50: > 60 µM (not active)
[2]
  EC50: 0.67 µM (active)

## CN(C)CCOCCOc1ccc(Cl)cc1Br
[1]
  EC50: > 60 µM (inconclusive)
[2]
  EC50: 0.937 µM (active)

## Cc1cc(O)c(NC(=O)c2cc([N+](=O)[O-])ccc2Cl)cc1C
[3]
  CC50: 23.3 µM (active)

## Clc1ccccc1Sc1ccc(-c2ccccn2)s1
Streptokinase A
  EC50: > 150 µM (not active)
Streptococcus
  EC50: > 150 µM (not active)
[4]
  EC50: 17.6 µM (active)

## CSc1ccc(S(=O)(=O)NCC(=O)OCC(=O)N2CCCC2=O)cc1[N+](=O)[O-]
Streptokinase A
  EC50: > 150 µM (not active)
Streptococcus
  EC50: > 150 µM (not active)
[4]
  EC50: 4.7 µM (active)

## CC1CCN(C(=O)c2ccc(-c3ccccc3Cl)o2)CC1
cells
  IC50: 33.8 µM (active)

## CCCSc1nsc(NC(=O)CCC)n1
[1]
  EC50: > 60 µM (not active)
[2]
  EC50: 1.04 µM (active)

## CC(=O)NCCn1c(SCc2cc(F)ccc2F)nc2ccccc2c1=O
[1]
  EC50: > 60 µM (not active)
[2]
  EC50: 0.487 µM (active)

## CCCCC(=O)Nc1ccc(C(=O)OC2CCCCC2)cc1
[3]
  CC50: 22.8 µM (active)

## CCCCOc1ccc(-c2cn3ccccc3n2)cc1[N+](=O)[O-]
[3]
  CC50: 38.7 µM (active)

## c1ccc(Nc2nc3ccccc3[nH]2)nc1
Streptokinase A
  EC50: > 150 µM (not active)
Streptococcus
  EC50: > 150 µM (not active)
[4]
  EC50: 3.59 µM (active)

## CCOc1cc2c(cc1OCC)-n1cccc1C(c1cc(OC)ccc1F)NC2 (stereo not given)
[3]
  CC50: 39.8 µM (active)

## c1ccc(-c2cccc(N3CC[C@@]4(CCCNC4)C3)c2)cc1
Cytochrome P450 3A4
  AC50: 15.8 µM (inconclusive)

## C1=NCCc2c1[nH]c1ccccc21.[O-][Cl+3]([O-])([O-])O
[3]
  CC50: 10.3 µM (active)

## O=C(Nc1ccccc1N1CCN(C(=O)c2ccc(Cl)cc2)CC1)c1ccc(Br)cc1
[1]
  EC50: > 60 µM (not active)
[2]
  EC50: 1.29 µM (active)

## Cc1cc(C)c2[nH]c(O)c(N=Nc3ccc(C(=O)O)cc3)c2c1
Streptokinase A
  EC50: > 150 µM (not active)
Streptococcus
  EC50: 11.1 µM (active)
[4]
  EC50: 4.53 µM (active)

## N#Cc1ccccc1-c1ccc2ncnc(N3CCNCC3)c2c1
Cytochrome P450 3A4
  AC50: 31.6 µM (inconclusive)

## Cn1nc(-c2ccccc2)c(CSc2ccccc2Cl)c1Cl
Streptokinase A
  EC50: 22.8 µM (active)
Streptococcus
  EC50: > 150 µM (not active)
[4]
  EC50: 22.8 µM (active)

## COc1ccc(-n2nc3cc(C)c(NC(=O)C(C)C)cc3n2)cc1
Streptokinase A
  EC50: > 150 µM (not active)
Streptococcus
  EC50: > 150 µM (not active)
[4]
  EC50: > 150 µM (not active)

## CN1CCN(c2ccc(S(=O)(=O)N3CCCCC3)cc2NC(=O)COc2cccc(Cl)c2)CC1
[1]
  EC50: > 30 µM (not active)
[2]
  EC50: 0.629 µM (active)

## Cc1ccc(OCC(=O)Nc2cc(S(=O)(=O)N3CCCCC3)ccc2N2CCN(C)CC2)c(C)c1
[1]
  EC50: > 60 µM (not active)
[2]
  EC50: 0.171 µM (active)

## CC[C@H]1C2=C3C(CC[C@H]4C(OCc5ccc(F)cc5C(F)(F)F)OC[C@](C)([C@@H]34)N(C(=O)OC(C)(C)C)C2)C(COC)C1COC (stereo not given in full)
Cytochrome P450 3A4
  AC50: 10 µM (inconclusive)

## Cc1ccc(C2(C(F)(F)F)N=C3Sc4cc(C)cc(C)c4N3C(=O)N2)cc1 (stereo not given)
[3]
  CC50: 23 µM (active)

## CCS(=O)(=O)Nc1ccc(C2=NN(C(=O)c3ccco3)C(c3cccc(F)c3)C2)cc1 (stereo not given)
[3]
  CC50: 32.9 µM (active)

## CCN(CCCNC(=O)CNC(=O)c1nn(-c2ccc(OC)cc2)c(=O)c2ccccc12)c1cccc(C)c1
[3]
  CC50: 46 µM (active)

## CC(=O)Nc1cccc(-c2csc(Nc3ccc(Cl)cn3)n2)c1
[3]
  CC50: 9.11 µM (active)

## Cc1nc(N2CCN(Cc3ccccc3)CC2)nc2c1C(=O)CC(C)C2 (stereo not given)
[1]
  EC50: > 60 µM (not active)
[2]
  EC50: 1.42 µM (active)

## COc1ccccc1CN1CCCC2(CCN(C(=O)c3ccco3)CC2)C1
Cytochrome P450 3A4
  AC50: 25.1 µM (inconclusive)

## Cc1cnc(CNc2ccnc(-c3c(C)noc3C)n2)cn1
Cytochrome P450 3A4
  AC50: 10 µM (inconclusive)

## COc1cc2c3cc1Oc1c(OC)c(OC)cc4c1[C@@H](Cc1ccc(O)c(c1)Oc1ccc(cc1)C[C@@H]3N(C)CC2)CN(C)C4
Cytochrome P450 3A4
  AC50: 2.51 µM (inconclusive)

## Cc1ccc(C(=O)OC2OC(=O)C(Cl)=C2N2CCOCC2)cc1 (stereo not given)
Streptococcus
  EC50: 2.04 µM (active)
[4]
  EC50: 0.884 µM (active)

## COc1ccc(-n2c(=O)c(-c3cccs3)nc3cnc(Nc4cccc(OC)c4)nc32)cc1
Cytochrome P450 3A4
  AC50: 1.58 µM (inconclusive)

## COc1ccc(C(=O)Nc2ccccc2-c2nnn(CC(=O)Nc3ccc4c(c3)OCCO4)n2)cc1
Streptokinase A
  EC50: > 150 µM (not active)
Streptococcus
  EC50: > 150 µM (inconclusive)
[4]
  EC50: 41.1 µM (active)

## Cc1ccc(C)c(-c2nnc(NC(=O)CCS(=O)(=O)c3ccccc3)o2)c1
Streptokinase A
  EC50: > 150 µM (not active)
Streptococcus
  EC50: 141 µM (active)
[4]
  EC50: 8.03 µM (active)

## CCOc1ccccc1NC(=O)NCc1ccc2c(c1)OCO2
Streptokinase A
  EC50: > 150 µM (not active)
Streptococcus
  EC50: > 150 µM (not active)
[4]
  EC50: > 150 µM (not active)

## CCOC(=O)C1CCN(C2=C(NS(=O)(=O)c3ccc(Cl)cc3)C(=O)c3ccccc3C2=O)CC1
Streptokinase A
  EC50: 27 µM (active)
Streptococcus
  EC50: > 150 µM (not active)
[4]
  EC50: 8.11 µM (active)

## COc1ccc(C(C(=O)NC2CCCCC2)N(C(=O)Cc2c[nH]c3ccccc23)c2ccccc2)cc1OC (stereo not given)
[3]
  CC50: 27.2 µM (active)

## Cc1nc(S)c2c(n1)-c1ccccc1CC21CCCCC1
Streptococcus
  EC50: 3.57 µM (active)
[4]
  EC50: 1.15 µM (active)

## Cc1ccc(S(=O)(=O)Nc2cccc(-c3ccc(N4CCCCCC4)nn3)c2)cc1C
[3]
  CC50: 25.8 µM (active)

## CCCOc1ccc(N2CC(C(=O)Nc3ccccc3F)CC2=O)cc1 (stereo not given)
cells
  IC50: 32.1 µM (active)

## CNC(=O)c1sc(-c2cccnc2)nc1C
Cytochrome P450 3A4
  AC50: 31.6 µM (inconclusive)

## NCCCP(=O)(O)O
Cytochrome P450 3A4
  AC50: 0.158 µM (inconclusive)

## N#C/C(=N\Nc1ccc(S(=O)(=O)N2CCOCC2)cc1)C(N)=S
Streptokinase A
  EC50: > 150 µM (not active)
Streptococcus
  EC50: > 150 µM (not active)
[4]
  EC50: > 150 µM (not active)

## C/C(=N\NC(=S)Nc1ccccc1C)c1cc2ccccc2o1
[1]
  EC50: > 60 µM (not active)
[2]
  EC50: 2.18 µM (active)

## Cc1cc(N/N=C/c2cccc(Br)c2)nc2ccccc12
Streptokinase A
  EC50: > 150 µM (not active)
Streptococcus
  EC50: 7.4 µM (active)
[4]
  EC50: 7.14 µM (active)

## Cc1nn(-c2ccc([N+](=O)[O-])cc2)c(O)c1/C=N/CCN1CCN(C(=O)c2ccc(Br)cc2)CC1
[1]
  EC50: 39.9 µM (active)
[2]
  EC50: 10.7 µM (active)

## CC(C)CCn1c(=O)c(C(=O)N/N=C/c2cccc(F)c2)c(O)c2ccccc21
Streptococcus
  EC50: 7.41 µM (active)
[4]
  EC50: 2.24 µM (active)

## N[C@@H](Cc1c[nH]cn1)C(=O)O [HISTIDINE]
Cytochrome P450 3A4
  AC50: 0.794 µM (inconclusive)
